Assay results as given in patent publication US5258406A, “Sulfonimidamides” (priority 1992, dated 1993).
Like-named read-outs stand apart in the source and are kept apart here.

Assays:
6C3HED lymphosarcoma = assay: animal or person; format: in vivo; details: for Tox/Tot (mice which died / total) / % inhibition of tumor growth: oral
LX1 = format: in vivo
Experimental: The compounds were tested in C3H mice bearing a 6C3HED lymphosarcoma, also known as the Gardner lymphosarcoma (GLS), and in a variety of human tumor xenografts in CD1 nu/nu mice, including CX-1, LX-1, HXGC3, and VRC5. The 6C3HED lymphosarcoma was obtained from the Division of Cancer Treatment, National […] Institute, Tumor Bank, maintained at E. G. and G. Mason Research (Worcester, Mass.). The CX-1 human colon carcinoma and the LX-1 human lung carcinoma xenografts were obtained from the National Cancer Institute. The HXGC3 and VRC5 human colon xenografts were obtained from Dr. P. J. Houghton, St. Jude Children's Hospital in Memphis (see Br. J. Cancer, 37, 213 (1978)). First passage tumor was stored in liquid nitrogen using standard techniques. The transplanted tumor was reestablished from the Tumor Bank every six months or as needed. The tumor was maintained by serial passage twice weekly in C3H mice.
In the procedure the tumor was removed from passage animals and minced into 1- to 3-mm square fragments using sterile techniques. Tumor pieces were checked for sterility using both Antibiotic Medium 1 and Brain Heart Infusion (Difco, Detroit, Mich.). Recipient mice were shaved and tumor pieces were implanted subcutaneously in the auxiliary region by trocar. Drug therapy on the appropriate schedule was initiated on the day after tumor implant for 6C3HED and after a seven (7) day delay for xenografts (or other delay as noted in Table 2). The compound being tested was mixed with 2.5% Emulphor EL620 from GAF Corporation (1:40 dilution in saline). Food and water were provided ad libitium. The drug was administered orally in 0.5 ml of 2.5% Emulphor (unless otherwise indicated). The tumor was measured the day after treatment ended with two dimensional measurements (width and length) of the tumor taken using automated digital calipers interfaced to a microcomputer. Approximate weight for the tumor was calculated using the following formula [Worzalla, J. F., et al., Invest. New Drugs, 8, 241 (1990], (tumor weight in mg)=(width in mm)^2 ×(length in mm)/2.
At least one control group of an equal number of mice was treated with the same volume of 2.5% Emulphor only. The percent inhibition was determined by subtracting the ratio of the mean tumor size of the test group relative to the control group from one and multiplying the result times 100.
The results of several experiments in mice bearing a 6C3HED lymphosarcoma (or other tumor where indicated) when the indicated compounds were administered are provided in Table 2. In Table 2, column 1 gives the Example number of the compound used, column 2 lists the dose level in mg/kg, column 3 provides the percent inhibition of tumor growth, column 4 gives the number of mice which died relative to the total number of animals in the group, column 5 gives the method of administration of the compound, and column 6 gives the dosage schedule. The protocol used with other tumors was the same as with the 6C3HED lymphosarcoma.

CN=S(=O)(NC(=O)Nc1ccc(Cl)cc1)c1ccc(C)cc1 (stereo not drawn) [Example 3, N-[[(4-Chlorophenyl)amino]carbonyl]-N',4-dimethylbenzenesulfonimidamide]
inhibition in vivo at 12.5 mg/kg (6C3HED lymphosarcoma; Mus musculus, 6C3HED, po, read-out: % inhibition of tumor growth, oral, 12.5 mg/kg, BIDX 8): 58% | inhibition in vivo at 25 mg/kg (6C3HED lymphosarcoma; Mus musculus, 6C3HED, po, read-out: % inhibition of tumor growth, oral, 25 mg/kg, BIDX 8): 82% | inhibition in vivo at 50 mg/kg (6C3HED lymphosarcoma; Mus musculus, 6C3HED, po, read-out: % inhibition of tumor growth, oral, 50 mg/kg, BIDX 8): 91% | inhibition in vivo at 75 mg/kg (6C3HED lymphosarcoma; Mus musculus, 6C3HED, po, read-out: % inhibition of tumor growth, oral, 75 mg/kg, DX 8): 81% | inhibition in vivo at 100 mg/kg (6C3HED lymphosarcoma; Mus musculus, 6C3HED, po, read-out: % inhibition of tumor growth, oral, 100 mg/kg, BIDX 8): 99% | inhibition in vivo at 150 mg/kg (6C3HED lymphosarcoma; Mus musculus, 6C3HED, po, read-out: % inhibition of tumor growth, oral, 150 mg/kg, DX 8): 93% | inhibition in vivo at 200 mg/kg (6C3HED lymphosarcoma; Mus musculus, 6C3HED, po, read-out: % inhibition of tumor growth, oral, 200 mg/kg, BIDX 8): 100% | inhibition in vivo at 300 mg/kg (6C3HED lymphosarcoma; Mus musculus, 6C3HED, po, read-out: % inhibition of tumor growth, oral, 300 mg/kg, DX 8): 99% | inhibition in vivo at 600 mg/kg (6C3HED lymphosarcoma; Mus musculus, 6C3HED, po, read-out: % inhibition of tumor growth, oral, 600 mg/kg, DX 8): 100% | Tox/Tot (mice which died / total) (6C3HED lymphosarcoma; 12.5 mg/kg, BIDX 8): 0/10 | Tox/Tot (mice which died / total) (6C3HED lymphosarcoma; 25 mg/kg, BIDX 8): 0/10 | Tox/Tot (mice which died / total) (6C3HED lymphosarcoma; 50 mg/kg, BIDX 8): 0/10 | Tox/Tot (mice which died / total) (6C3HED lymphosarcoma; 75 mg/kg, DX 8): 0/10 | Tox/Tot (mice which died / total) (6C3HED lymphosarcoma; 100 mg/kg, BIDX 8): 0/10 | % inhibition of tumor growth (6C3HED lymphosarcoma; 150 mg/kg, DX 8): 96% | Tox/Tot (mice which died / total) (6C3HED lymphosarcoma; 150 mg/kg, DX 8): 1/10 | Tox/Tot (mice which died / total) (6C3HED lymphosarcoma; 200 mg/kg, BIDX 8): 0/10 | Tox/Tot (mice which died / total) (6C3HED lymphosarcoma; 300 mg/kg, DX 8): 0/10 | Tox/Tot (mice which died / total) (6C3HED lymphosarcoma; 600 mg/kg, DX 8): 4/10 | % inhibition of tumor growth (6C3HED lymphosarcoma; 1200 mg/kg, DX 8): TOX | Tox/Tot (mice which died / total) (6C3HED lymphosarcoma; 1200 mg/kg, DX 8): 10/10 | % inhibition of tumor growth (LX1; oral, 150 mg/kg, BIDX 10): TOX | Tox/Tot (mice which died / total) (LX1; oral, 150 mg/kg, BIDX 10): 8/8 | % inhibition of tumor growth (LX1; oral, 300 mg/kg, BIDX 10): TOX | Tox/Tot (mice which died / total) (LX1; oral, 300 mg/kg, BIDX 10): 8/8

Cc1cc(S(=N)(=O)NC(=O)Nc2ccc(Cl)cc2)cc(C)c1C (stereo not drawn) [Example 45, N-[[(4-chlorophenyl)amino]carbonyl]-3,4,5-trimethylbenzenesulfonimidamide]
inhibition in vivo at 9.37 mg/kg (6C3HED lymphosarcoma; Mus musculus, 6C3HED, po, read-out: % inhibition of tumor growth, oral, 9.37 mg/kg, Days 1, 3, 5, 7): 78% | inhibition in vivo at 18.75 mg/kg (6C3HED lymphosarcoma; Mus musculus, 6C3HED, po, read-out: % inhibition of tumor growth, oral, 18.75 mg/kg, Days 1, 3, 5, 7): 95% | inhibition in vivo at 37.5 mg/kg (6C3HED lymphosarcoma; Mus musculus, 6C3HED, po, read-out: % inhibition of tumor growth, oral, 37.5 mg/kg, Days 1, 3, 5, 7): 99% | inhibition in vivo at 75 mg/kg (6C3HED lymphosarcoma; Mus musculus, 6C3HED, po, read-out: % inhibition of tumor growth, oral, 75 mg/kg, Days 1, 3, 5, 7): 99% | inhibition in vivo at 150 mg/kg (6C3HED lymphosarcoma; Mus musculus, 6C3HED, po, read-out: % inhibition of tumor growth, oral, 150 mg/kg, Days 1, 3, 5, 7): 100% | inhibition in vivo at 300 mg/kg (6C3HED lymphosarcoma; Mus musculus, 6C3HED, po, read-out: % inhibition of tumor growth, oral, 300 mg/kg, Days 1, 3, 5, 7): 100% | Tox/Tot (mice which died / total) (6C3HED lymphosarcoma; 9.37 mg/kg, Days 1, 3, 5, 7): 0/10 | Tox/Tot (mice which died / total) (6C3HED lymphosarcoma; 18.75 mg/kg, Days 1, 3, 5, 7): 0/10 | Tox/Tot (mice which died / total) (6C3HED lymphosarcoma; 37.5 mg/kg, Days 1, 3, 5, 7): 2/10 | Tox/Tot (mice which died / total) (6C3HED lymphosarcoma; 75 mg/kg, Days 1, 3, 5, 7): 1/10 | % inhibition of tumor growth (6C3HED lymphosarcoma; 150 mg/kg, Days 1, 3, 5, 7): 99% | Tox/Tot (mice which died / total) (6C3HED lymphosarcoma; 150 mg/kg, Days 1, 3, 5, 7): 2/10 | Tox/Tot (mice which died / total) (6C3HED lymphosarcoma; 300 mg/kg, Days 1, 3, 5, 7): 3/10 | Tox/Tot (mice which died / total) (LX1; oral, 150 mg/kg, Days 1, 4, 7, 10, from day 7 after implant): 0/9 | Tox/Tot (mice which died / total) (LX1; oral, 300 mg/kg, Days 1, 4, 7, 10, from day 7 after implant): 0/10 | % inhibition of tumor growth (LX1; po, 150 mg/kg, 168 h): 40% | % inhibition of tumor growth (LX1; po, 300 mg/kg, 168 h): 31%
